Experimental data published in patent publication EP4596574A1, “GLP-1/GCG/GIP TRIPLE-RECEPTOR AGONIST AND USE THEREOF” (Sunshine Lake Pharma Co., Ltd., priority 2022, dated 2024).
Starred links: 1 amine or outer side, 2 acyl side, 3 side chain; linkers in the order of their positions; H or OH if unused. Non-standard residues stand in square brackets, D forms with d. Residues, ends and D or L forms follow the SMILES beside them. Groups on a side chain read outwards from the residue. *: point of attachment. C20 diacid = O=C(O)CCCCCCCCCCCCCCCCCCC(=O)*; C18 diacid = O=C(O)CCCCCCCCCCCCCCCCC(=O)*; αMePhe(2-F) = C[C@](N)(Cc1ccccc1F)C(=O)O; γGlu = O=C(O)[C@H](CCC(=O)[*:2])N[*:1]; AEEA = NCCOCCOCC(=O)O; Aib = CC(C)(N)C(=O)O

Experiments:
Type in all cases: cell-based
[1] = molecular target: T1, GLP-1R (Homo sapiens, UniProt P43220); assay: In vitro cell activity, cAMP production in HEK293 cells expressing GLP-1R; conditions: HEK293-GLP-1R cells, cAMP; read-out: GLP-1R (EC50)
T1 construct: expressed in transfected cells; host or cells: HEK293 (HEK293-GLP-1R)
Experimental: (§1) After they were completely thawed within 1.5 minutes, the cells were added dropwise into a 15 mL centrifuge tube containing 8 mL of warm culture medium in a clean bench. The tubes were centrifuged at 900 rpm for 5 minutes, the supernatant was discarded, and the cells were resuspended in 1 mL of complete culture medium (by pipetting 15 times). 20 µL of the suspension was immediately taken and mixed with an equal volume of trypan blue. 20 µL was taken to count the number of live cells, and the cells were diluted to 4×10^5 cells/mL with complete culture medium. • 4) The 384-well plate was divided into GLP-1R cell, GCGR cell and GIPR cell areas. The cell suspension was added to the wells of the corresponding area at 5 µL per well using a 12-channel variable-channel adjustable dispenser. […] Then, the diluted cAMP-d2 working solution and anti-cAMP-crytate working solution were mixed evenly in a ratio of 1:1, and 10 µL was added to each well of the sample group. The wells were covered with white lids and placed at room temperature in the dark for 1 hour or at 4 °C overnight. • 6) The fluorescence values at 665 nm and 620 nm were detected in a multifunctional microplate reader. In GraphPad Prism 6, the signal ratio and sample concentration were nonlinearly fitted using a four-parameter equation to obtain the EC50 value.

[2] = molecular target: T2, GIPR (Homo sapiens, UniProt P48546); assay: In vitro cell activity, cAMP production in HEK293 cells expressing GIPR; conditions: HEK293-GIPR cells, cAMP; read-out: GIPR (EC50)
T2 construct: expressed in transfected cells; host or cells: HEK293 (HEK293-GIPR)
T2 sequence (P48546 22-466): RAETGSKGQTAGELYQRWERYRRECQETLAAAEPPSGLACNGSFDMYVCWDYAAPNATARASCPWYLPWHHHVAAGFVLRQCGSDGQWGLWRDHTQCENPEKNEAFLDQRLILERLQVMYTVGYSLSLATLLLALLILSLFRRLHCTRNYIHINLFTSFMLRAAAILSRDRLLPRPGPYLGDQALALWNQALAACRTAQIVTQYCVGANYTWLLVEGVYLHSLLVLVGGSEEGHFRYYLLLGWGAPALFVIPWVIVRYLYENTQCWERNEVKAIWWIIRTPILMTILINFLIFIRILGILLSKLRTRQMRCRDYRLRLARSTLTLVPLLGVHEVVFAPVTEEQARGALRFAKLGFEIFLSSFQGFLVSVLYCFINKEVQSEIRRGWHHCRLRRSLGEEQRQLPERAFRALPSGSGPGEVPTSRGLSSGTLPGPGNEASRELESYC
Experimental: as §1, with “The wells were covered with white lids and placed at room temperature in the dark for 1 hour or at 4 °C overnight. • 6) The fluorescence values at 665 nm and 620 nm were detected in a multifunctional microplate reader.” left out

[3] = molecular target: T3, GCGR (Homo sapiens, UniProt P47871); assay: In vitro cell activity, cAMP production in HEK293 cells expressing GCGR; conditions: HEK293-GCGR cells, cAMP; read-out: GCGR (EC50)
T3 construct: expressed in transfected cells; host or cells: HEK293 (HEK293-GCGR)
Experimental: as §1

T3 sequence (P47871 26-477, species assumed): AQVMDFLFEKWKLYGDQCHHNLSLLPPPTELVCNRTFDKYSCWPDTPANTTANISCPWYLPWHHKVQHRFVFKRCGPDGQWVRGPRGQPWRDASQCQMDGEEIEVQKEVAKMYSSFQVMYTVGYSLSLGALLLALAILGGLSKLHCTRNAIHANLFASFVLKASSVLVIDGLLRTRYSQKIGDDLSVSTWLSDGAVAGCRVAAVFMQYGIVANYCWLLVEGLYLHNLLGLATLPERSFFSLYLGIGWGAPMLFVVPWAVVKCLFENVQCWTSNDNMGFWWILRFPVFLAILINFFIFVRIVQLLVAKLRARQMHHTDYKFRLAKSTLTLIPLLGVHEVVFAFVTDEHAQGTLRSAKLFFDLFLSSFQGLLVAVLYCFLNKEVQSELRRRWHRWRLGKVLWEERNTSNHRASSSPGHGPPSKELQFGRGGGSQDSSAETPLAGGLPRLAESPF
T1 sequence (P43220 24-463, species assumed): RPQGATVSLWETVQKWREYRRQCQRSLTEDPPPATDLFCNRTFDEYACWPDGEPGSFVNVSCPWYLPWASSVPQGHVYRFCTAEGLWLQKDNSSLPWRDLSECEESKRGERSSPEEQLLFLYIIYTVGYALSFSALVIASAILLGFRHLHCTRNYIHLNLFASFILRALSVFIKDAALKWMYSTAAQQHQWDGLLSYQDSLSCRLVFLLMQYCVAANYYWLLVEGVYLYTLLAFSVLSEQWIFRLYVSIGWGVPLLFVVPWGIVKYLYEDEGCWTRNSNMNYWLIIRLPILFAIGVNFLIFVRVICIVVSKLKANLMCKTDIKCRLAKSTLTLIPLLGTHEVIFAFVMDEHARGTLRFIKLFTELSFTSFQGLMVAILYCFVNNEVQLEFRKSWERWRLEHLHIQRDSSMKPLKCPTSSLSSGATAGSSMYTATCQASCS

Row | Structure (SMILES) | EC50 [1] | EC50 [2] | EC50 [3]
1 | CC[C@H](C)[C@H](NC(=O)[C@H](Cc1ccccc1)NC(=O)[C@H](C)NC(=O)[C@H](CCCNC(=N)N)NC(=O)[C@H](CCC(N)=O)NC(=O)[C@H](C)NC(=O)[C@H](CCCCNC(=O)COCCOCCNC(=O)CC[C@H](NC(=O)CCCCCCCCCCCCCCCCCCC(=O)O)C(=O)O)NC(=O)[C@H](CCC(=O)O)NC(=O)[C@H](CC(=O)O)NC(=O)[C@H](CC(C)C)NC(=O)[C@H](CC(C)C)NC(=O)[C@@H](NC(=O)[C@H](CO)NC(=O)[C@H](Cc1ccc(O)cc1)NC(=O)[C@H](CC(=O)O)NC(=O)[C@H](CO)NC(=O)[C@@H](NC(=O)[C@](C)(Cc1ccccc1F)NC(=O)[C@@H](NC(=O)CNC(=O)[C@H](Cc1c[nH]cn1)NC(=O)C(C)(C)NC(=O)[C@@H](N)Cc1ccc(O)cc1)[C@@H](C)O)[C@@H](C)O)[C@@H](C)CC)C(=O)N[C@@H](CCC(=O)O)C(=O)N[C@@H](Cc1ccc(O)cc1)C(=O)N[C@@H](CC(C)C)C(=O)N[C@@H](CC(C)C)C(=O)N[C@@H](CCC(=O)O)C(=O)NCC(=O)NCC(=O)N1CCC[C@H]1C(=O)N[C@@H](CO)C(=O)N[C@@H](CO)C(=O)NCC(=O)N[C@@H](C)C(=O)N1CCC[C@H]1C(=O)N1CCC[C@H]1C(=O)N1CCC[C@H]1C(=O)N[C@@H](CO)C(=O)O [HEC-PT84] | 0.291 nM | 0.232 nM | 0.306 nM
2 | CC[C@H](C)[C@H](NC(=O)[C@H](CCC(=O)O)NC(=O)[C@H](CC(=O)O)NC(=O)[C@H](CC(C)C)NC(=O)[C@H](CC(C)C)NC(=O)[C@@H](NC(=O)[C@H](CO)NC(=O)[C@H](Cc1ccc(O)cc1)NC(=O)[C@H](CC(=O)O)NC(=O)[C@H](CO)NC(=O)[C@@H](NC(=O)[C@](C)(Cc1ccccc1F)NC(=O)[C@@H](NC(=O)CNC(=O)[C@H](CCC(N)=O)NC(=O)C(C)(C)NC(=O)[C@@H](N)Cc1c[nH]cn1)[C@@H](C)O)[C@@H](C)O)[C@@H](C)CC)C(=O)N[C@@H](C)C(=O)N[C@@H](CCC(N)=O)C(=O)N[C@@H](CCCCNC(=O)COCCOCCNC(=O)COCCOCCNC(=O)CC[C@H](NC(=O)CCCCCCCCCCCCCCCCCCC(=O)O)C(=O)O)C(=O)N[C@@H](CC(=O)O)C(=O)N[C@@H](Cc1ccccc1)C(=O)N[C@H](C(=O)N[C@@H](CCC(=O)O)C(=O)N[C@@H](Cc1c[nH]c2ccccc12)C(=O)N[C@@H](CC(C)C)C(=O)N[C@@H](CC(C)C)C(=O)N[C@@H](CCC(=O)O)C(=O)NCC(=O)NCC(=O)N1CCC[C@H]1C(=O)N[C@@H](CO)C(=O)N[C@@H](CO)C(=O)NCC(=O)N[C@@H](C)C(=O)N1CCC[C@H]1C(=O)N1CCC[C@H]1C(=O)N1CCC[C@H]1C(=O)N[C@@H](CO)C(=O)O)[C@@H](C)CC [HEC-PT67] (H-H[Aib]QGT[αMePhe(2-F)]TSDYSILLDEIAQK([AEEA-AEEA-γGlu-C20 diacid])DFIEWLLEGGPSSGAPPPS-OH) | 0.679 nM | 0.402 nM | 57 nM
3 | CC[C@H](C)[C@H](NC(=O)[C@H](Cc1ccccc1)NC(=O)[C@H](C)NC(=O)[C@H](CCCCNC(=O)COCCOCCNC(=O)CC[C@H](NC(=O)CCCCCCCCCCCCCCCCC(=O)O)C(=O)O)NC(=O)[C@H](CCC(N)=O)NC(=O)[C@H](CCCNC(=N)N)NC(=O)[C@@H](NC(=O)[C@H](CCCNC(=N)N)NC(=O)[C@H](CC(=O)O)NC(=O)[C@H](CC(C)C)NC(=O)[C@H](CC(C)C)NC(=O)[C@@H](NC(=O)[C@H](CO)NC(=O)[C@H](Cc1ccc(O)cc1)NC(=O)[C@H](CC(=O)O)NC(=O)[C@H](CO)NC(=O)[C@@H](NC(=O)[C@](C)(Cc1ccccc1F)NC(=O)[C@@H](NC(=O)CNC(=O)[C@H](CCC(N)=O)NC(=O)C(C)(C)NC(=O)[C@@H](N)Cc1ccc(O)cc1)[C@@H](C)O)[C@@H](C)O)[C@@H](C)CC)[C@@H](C)CC)C(=O)N[C@@H](CCC(=O)O)C(=O)N[C@@H](Cc1ccc(O)cc1)C(=O)N[C@@H](CC(C)C)C(=O)N[C@@H](CC(C)C)C(=O)N[C@@H](CCC(=O)O)C(=O)NCC(=O)NCC(=O)N1CCC[C@H]1C(=O)N[C@@H](CO)C(=O)N[C@@H](CO)C(=O)NCC(=O)N[C@@H](C)C(=O)N1CCC[C@H]1C(=O)N1CCC[C@H]1C(=O)N1CCC[C@H]1C(=O)N[C@@H](CO)C(=O)O [HEC-PT126] | 0.861 nM | 0.0589 nM | 0.0319 nM
4 | CC[C@H](C)[C@H](NC(=O)[C@H](CCCNC(=N)N)NC(=O)[C@H](CC(=O)O)NC(=O)[C@H](CCCCNC(=O)COCCOCCNC(=O)CC[C@H](NC(=O)CCCCCCCCCCCCCCCCC(=O)O)C(=O)O)NC(=O)[C@H](CC(C)C)NC(=O)[C@@H](NC(=O)[C@H](CO)NC(=O)[C@H](Cc1ccc(O)cc1)NC(=O)[C@H](CC(=O)O)NC(=O)[C@H](CO)NC(=O)[C@@H](NC(=O)[C@](C)(Cc1ccccc1F)NC(=O)[C@@H](NC(=O)CNC(=O)[C@H](CCC(N)=O)NC(=O)C(C)(C)NC(=O)[C@@H](N)Cc1ccc(O)cc1)[C@@H](C)O)[C@@H](C)O)[C@@H](C)CC)C(=O)N[C@@H](C)C(=O)N[C@@H](CCC(N)=O)C(=O)N[C@@H](CCCNC(=N)N)C(=O)N[C@@H](C)C(=O)N[C@@H](Cc1ccccc1)C(=O)N[C@H](C(=O)N[C@@H](CCC(=O)O)C(=O)N[C@@H](Cc1ccc(O)cc1)C(=O)N[C@@H](CC(C)C)C(=O)N[C@@H](CC(C)C)C(=O)N[C@@H](CCC(=O)O)C(=O)NCC(=O)NCC(=O)N1CCC[C@H]1C(=O)N[C@@H](CO)C(=O)N[C@@H](CO)C(=O)NCC(=O)N[C@@H](C)C(=O)N1CCC[C@H]1C(=O)N1CCC[C@H]1C(=O)N1CCC[C@H]1C(=O)N[C@@H](CO)C(=O)O)[C@@H](C)CC [HEC-PT142] (H-Y[Aib]QGT[αMePhe(2-F)]TSDYSILK([AEEA-γGlu-C18 diacid])DRIAQRAFIEYLLEGGPSSGAPPPS-OH) | 0.16 nM | 0.142 nM | 0.113 nM
5 | CC[C@H](C)[C@H](NC(=O)[C@H](CC(C)C)NC(=O)[C@H](Cc1c[nH]c2ccccc12)NC(=O)[C@H](CCC(=O)O)NC(=O)[C@@H](NC(=O)[C@H](Cc1ccccc1)NC(=O)[C@H](CCC(=O)O)NC(=O)[C@H](CCCCNC(=O)COCCOCCNC(=O)COCCOCCNC(=O)CC[C@H](NC(=O)CCCCCCCCCCCCCCCCCCC(=O)O)C(=O)O)NC(=O)[C@H](C)NC(=O)[C@H](C)NC(=O)[C@H](CCCNC(=N)N)NC(=O)[C@H](CCC(=O)O)NC(=O)[C@H](CC(=O)O)NC(=O)[C@H](CC(C)C)NC(=O)[C@H](CC(C)C)NC(=O)[C@@H](NC(=O)[C@H](CO)NC(=O)[C@H](Cc1ccc(O)cc1)NC(=O)[C@H](CC(=O)O)NC(=O)[C@H](CO)NC(=O)[C@@H](NC(=O)[C@](C)(Cc1ccccc1F)NC(=O)[C@@H](NC(=O)CNC(=O)[C@H](CCC(N)=O)NC(=O)C(C)(C)NC(=O)[C@@H](N)Cc1ccc(O)cc1)[C@@H](C)O)[C@@H](C)O)[C@@H](C)CC)[C@@H](C)CC)C(=O)N[C@@H](C)C(=O)NCC(=O)NCC(=O)N1CCC[C@H]1C(=O)N[C@@H](CO)C(=O)N[C@@H](CO)C(=O)NCC(=O)N[C@@H](C)C(=O)N1CCC[C@H]1C(=O)N1CCC[C@H]1C(=O)N1CCC[C@H]1C(=O)N[C@@H](CO)C(=O)O [HEC-PT71] (H-Y[Aib]QGT[αMePhe(2-F)]TSDYSILLDERAAK([AEEA-AEEA-γGlu-C20 diacid])EFIEWLIAGGPSSGAPPPS-OH) | 0.336 nM | 0.464 nM | 5.39 nM
